The text below walks through data of ChEMBL document CHEMBL4011637, “Synthesis of 8-Substituted Analogues of Cyclic ADP-4-Thioribose and Their Unexpected Identification as Ca2+-Mobilizing Full Agonists” (J Med Chem, 2017).

Activity calls are given as the source filed them. No cut-off for these calls is given here.

For data set [1], the species on record is Homo sapiens. Kind of data set: Agonist activity at ryanodine receptor (unknown origin) in T cells assessed as increase in intracellular calcium mobilization by Fluo-3 dye based fluorimetric assay. It counts as cell-based.
The target in another data set is Ryanodine receptor (Hemicentrotus pulcherrimus, UniProt Q8TA74). The experiment in a line: (§1) Agonist activity at ryanodine receptor in Hemicentrotus pulcherrimus egg homogenate assessed as increase in intracellular calcium mobilization by Fluo-3 dye based fluorimetric assay. It counts as cell-based.
Data set [2] can be described thus: Dissociation constant, pKa of the compound. It is filed as physicochemical.
The species named for data set [3] is Homo sapiens. Kind of data set: Agonist activity at ryanodine receptor (unknown origin) in neuronal cells assessed as increase in intracellular calcium mobilization by Fluo-3 dye based fluorimetric assay. It is filed as cell-based.
The target in data set [4] is Ryanodine receptor (Hemicentrotus pulcherrimus) (UniProt Q8TA74). The experiment in a line: Antagonist activity at ryanodine receptor in Hemicentrotus pulcherrimus egg homogenate assessed as decrease in intracellular calcium mobilization by Fluo-3 dye based fluorimetric assay. It counts as cell-based.
Data set [5] has the same target. The description is as §1. It counts as cell-based.

As for `Nc1c2ncn3c2nc[n+]1[C@@H]1S[C@H](COP(=O)([O-])OP(=O)(O)OC[C@H]2O[C@@H]3[C@H](O)[C@@H]2O)[C@@H](O)[C@H]1O`, the outcome in the data set filed under Homo sapiens [1] and in the data set filed under Homo sapiens [3] was Active. Besides, the EC50 at Ryanodine receptor worked out at 39 nM. Besides, in data set [2], the pKa worked out at 8.
Regarding `Nc1nc2c(N)[n+]3cnc2n1[C@@H]1O[C@H](COP(=O)(O)OP(=O)([O-])OC[C@H]2S[C@@H]3[C@H](O)[C@@H]2O)[C@@H](O)[C@H]1O`, the half-maximal effective concentration (EC50) at Ryanodine receptor was 870 nM. Also, the inhibition result in data set [4] was “inactive”.
For the molecule `Nc1nc2c(N)[n+]3cnc2n1[C@@H]1O[C@H](COP(=O)([O-])OP(=O)(O)OC[C@H]2C[C@@H]3[C@H](O)[C@@H]2O)[C@@H](O)[C@H]1O`, the outcome in data set [5] was Active.
Regarding `Nc1c2ncn3c2nc[n+]1[C@@H]1O[C@H](COP(=O)([O-])OP(=O)(O)OC[C@H]2O[C@@H]3[C@H](O)[C@@H]2O)[C@@H](O)[C@H]1O`, the result in the data set filed under Homo sapiens [1] was Active. Also, in data set [5], the Activity result was “Dose-dependent effect”. For the same molecule, the concentration giving a half-maximal response (EC50) on Ryanodine receptor stood at 210 nM. Also, in data set [2], the pKa is 8.3.
As to `Nc1c2ncn3c2nc[n+]1[C@@H]1C[C@H](COP(=O)([O-])OP(=O)(O)OC[C@H]2O[C@@H]3[C@H](O)[C@@H]2O)[C@@H](O)[C@H]1O`, the outcome in the data set listed under Homo sapiens [1] was inactive. The same molecule gave a pKa in data set [2] of 9. Besides, the outcome in the data set filed under Homo sapiens [3] was Active.
Turning to `Nc1c2nc(Cl)n3c2nc[n+]1[C@@H]1C[C@H](COP(=O)(O)OP(=O)([O-])OC[C@H]2O[C@@H]3[C@H](O)[C@@H]2O)[C@@H](O)[C@H]1O`, the result in data set [5] was Active.
Consider `Nc1c2nc(Cl)n3c2nc[n+]1[C@@H]1S[C@H](COP(=O)([O-])OP(=O)(O)OC[C@H]2O[C@@H]3[C@H](O)[C@@H]2O)[C@@H](O)[C@H]1O`, for which the half-maximal effective concentration (EC50) on Ryanodine receptor came out at 12000 nM. In addition, the inhibition entry in data set [4] was “inactive”.
On to `[N-]=[N+]=Nc1nc2c(N)[n+]3cnc2n1[C@@H]1O[C@H](COP(=O)(O)OP(=O)([O-])OC[C@H]2S[C@@H]3[C@H](O)[C@@H]2O)[C@@H](O)[C@H]1O`, for which the half-maximal effective concentration (EC50) on Ryanodine receptor turned out to be 37000 nM.
Consider `[N-]=[N+]=Nc1nc2c(N)[n+]3cnc2n1[C@@H]1O[C@H](COP(=O)(O)OP(=O)([O-])OC[C@H]2C[C@@H]3[C@H](O)[C@@H]2O)[C@@H](O)[C@H]1O`, for which, in data set [5], the result was Active.
